Entries after “also recorded” stand apart in the source; their conditions may differ. Like-named read-outs stand apart in the source and are kept apart here.
Key:
[1] = cited from earlier work
[2] = cited from earlier work; remark: listed apart in the source
[3] = Photostability order of commercial dyes; assay type: physicochemical; conditions: derived from the references to Table 1
Source text: Cytochem. 2003, 51, 1699-1712], and only in 2007 its structure has been reported [B. Agnew, K. R. Gee, T. G. Nyberg (Invitrogen), US Pat. 2007/0249014]. Along with rhodamines, the following substance classes were considered as leads for developing of the new fluorescent dyes: BODIPY® derivatives (represented by BODYPY® 630/650 in FIG. 4), carbopyronines (Atto 635 and 647), cyanine dyes (Cy® 5 and Alexa 647), structurally related hybrids of cyanine dyes and benzopyranes (DY-630/635/650) and oxazines (Evoblue 30). BODIPY® derivatives have a substantial drawback: sometimes, fluorescence intensity of their bioconjugates is not directly proportional to a number of labelled sites [R. P. Haugland, A Guide to Fluorescent Probes and Labelling Technologies, Invitrogen Corp., Carlsbad, 2005, p. 53]. Moreover, it is difficult to chemically modify a BODIPY residue in such a way that it becomes water-soluble and more photostable. Carbopyronines have been extensively studied by Drexhage et al. [e.g. A. Zilles, J. Arden-Jacob, K.-H. Drexhage, N. U. Kemnitzer, M. Hammers-Schneider (Atto-tec GmbH), WO 2005/003086 (13 Jan. 2005)]. The carbopyronine dye Atto 647N has been widely used for labelling in many “nanoscopic” studies. Quite recently first STED images of the living cells were recorded at a rate of 28 frames per seconds using this dye [V. Westphal, S. O. Rizzoli, M. A. Lauterbach, D. Kamin, R. Jahn, S. W. Hell, Science 2008, 320, 246-249]. In the course of this study, the movements of synaptic vesicles inside the axons of cultured neurons were recorded with a resolution of ca. 60 nm. […] However, it is not easy to further improve the properties of the carbopyronine dye Atto 647N and make it more hydrophilic. […] Lower photostability and moderate Φfl-values of cyanine dyes make them inappropriate as lead structures. Short lifetimes of the excited states and presumably low Φfl-values of oxazines (e.g. Evoblue 30), as well as their moderate photostability, make the optimization of their properties not very promising.

[4] = Spectral properties of commercially available dyes (Table 1); assay type: physicochemical; conditions: commercial dyes
[5] = Solubility and polarity of the dyes
[6] = 8 M urea solution; cited from earlier work
[7] = UV-visible absorption and fluorescence spectra of the dyes of the invention; assay type: physicochemical
Description: UV-visible absorption spectra were recorded on a Varian Cary 4000 UV-Vis spectrophotometer, and fluorescence spectra on a Varian Cary Eclipse fluorescence spectrophotometer. Reactions were carried out upon magnetic stirring in Schlenk flasks equipped with septa or reflux condensers with bubble-counters under argon using a standard manifold with vacuum and argon lines. All NMR spectra are referenced to tetramethylsilane as an internal standard (δ=0 ppm) using the signals of the residual protons of CHCl3 (7.26 ppm) in CDCl3, CHD2OD (3.31 ppm) in CD3OD, HOD (4.75 ppm) in D2O, [D5]acetone (2.04 ppm) in [D6]acetone or [D5]DMSO (2.50 ppm) in [D6]DMSO. Multiplicities of signals are described as follows: s=singlet, br. s=broad singlet, d=doublet, t=triplet, q=quartet, quint=quintet, m=multiplet, mc=centrosymmetrical multiplet. Coupling constants (J) are given in Hz. Multiplicities in the ^13C NMR spectra were determined by APT (Attached Proton Test) measurements. Low resolution mass spectra (electro spray ionization, ESI) were obtained with LCQ and ESI-TOF mass-spectrometers (MICROTOF (focus), Fa. Bruker). The MICROTOF spectrometer equipped with ESI ion source Apollo and direct injector with LC autosampler Agilent RR 1200 was used for obtaining high resolution mass spectra (ESI-HRMS). ESI-HRMS were obtained also on APEX IV spectrometer (Bruker). HPLC system (Knauer): Smartline pump 1000 (2×), UV detector 2500, column thermostat 4000 (25° C.), mixing chamber, injection valve with 20 and 100 μL loop for the analytical and preparative columns, respectively; 6-port-3-channel switching valve; analytical column: Eurospher-100 C18, 5 μm, 250×4 mm, 1.1 mL/min; preparative column: Eurospher-100-5 C18, 5 μm, 250×8 mm, 3.7 mL/min; solvent A: water+0.1% v/v trifluoroacetic acid (TFA); solvent B: MeCN+0.1% v/v TFA; detection at 636 nm (if not stated otherwise). Normal phase analytical TLC was performed on MERCK ready-to-use plates with silica gel 60 (F254) and reversed phase TLC—on RP-18W/UV254 precoated TLC plates (Macherey-Nagel). Preparative TLC was performed on MERCK HPTLC silica gel 60 plates (10×10 cm, layer thickness 0.2 mm). Column chromatography: MERCK silica gel, grade 60, 0.04-0.063 mm or Polygoprep 60-50 C18 (Macherey-Nagel).

[8] = Fluorescence quantum yield, Atto 633 as reference; assay type: physicochemical; conditions: Atto 633 as reference (Φfl = 64% in aqueous buffer)
Source text: Moreover, intersystem crossing rates (kISC) and rates of the T1→S0 transitions were also found to be the same for both deuterated and undeuterated substances (see ref. to Table 2).

[9] = Excited state lifetime and FCS study under single molecule conditions; assay type: physicochemical
[10] = Chemical and storage stability of dyes and reactive derivatives; assay type: physicochemical
[11] = physchem; conditions: water

SMILES | Stokes shift [4] | polarity [5] | Φfl in water [8] | Φfl ([1]; no solvent given in the cell) | τfl ([1]; solvent not given) | Solubility (solvents) [2] | order of the photoresistance [3] | τfl ([1]; H2O) | ε · 10^−5 ([1]; solvent H2O) | λmax (abs.) ([1]; solvent H2O) | λmax (fl.) ([1]; solvent H2O) | solubility in water or aqueous buffers [5] | further results
CCN(CC)CC.CCN(CC)CC.CN1c2cc3c(cc2-c2sc(S(=O)(=O)O)cc2C1(C)C)C(c1c(F)c(SCC(=O)O)cc(F)c1S(=O)(=O)[O-])=c1cc2c(cc1O3)=[N+](C)C(C)(C)c1cc(S(=O)(=O)O)sc1-2 [Alexa ® 633] | 15 nm | – | – | – | 3.2 ns | DMSO, H2O^3 | Atto 633>Atto 647N>Alexa® 647>Alexa® 633>Cy® 5 | – | – | – | – | – | ε · 10^−5 ([1]; solvent MeOH): 1.0 M^−1 cm^−1; λmax (abs.) ([1]; solvent MeOH): 632 nm; λmax (fl.) ([1]; solvent MeOH): 647 nm
CC[N+]1=c2cc3c(cc2CCC1)=C(c1ccccc1C(=O)N(C)CCCC(=O)O)c1ccc(N(C)C)cc1C3(C)C [Atto 633] | – | – | – | 64% | – | DMF, DMSO,; also recorded: (H2O) MeCN^2 | Atto 633>Atto 647N>Alexa® 647>Alexa® 633>Cy® 5 | 3.2 (H2O) ns | 1.3 M^−1 cm^−1 | 629 nm | 657 nm | – | –
CC1=CC(C)(C)N2CCCc3c4c(cc1c32)C(c1c(F)c(F)c(F)c(F)c1C(=O)[O-])=c1cc2c3c(c1O4)CCC[N+]=3C(C)(C)C=C2C [Compound 4] | – | non-polar | 63% | – | – | – | – | – | – | – | – | low solubility in water or aqueous buffers; also recorded: insoluble in water | Solubility (solvents) [5]: CHCl3, THF; solubility in organic solvents [5]: soluble in most organic solvents; absorption maximum [6]: 630 nm; emission maximum [6]: 655 nm; λmax (abs.) ([7]; solvent MeOH): 616 nm; λmax (fl.) ([7]; solvent MeOH): 641 nm
CC[N+]1=C(C=CC=CC=C2N(CCCCCC(=O)O)c3ccc(S(=O)(=O)O)cc3C2(C)C)C(C)(C)c2cc(S(=O)(=O)[O-])ccc21 [Cy ® 5] | – | – | – | – | – | – | Atto 633>Atto 647N>Alexa® 647>Alexa® 633>Cy® 5 | 0.9 (H2O)^1 ns | 2.5 M^−1 cm^−1 | 647 nm | 663 nm | – | Φfl ([1]; PBS): 27%; τfl ([1]; PBS): 1 (PBS)^11 ns

Continued, in another order:

Stokes shift [4] | polarity [5] | Φfl in water [8] | SMILES | Φfl ([1]; no solvent given in the cell) | τfl ([1]; solvent not given) | Solubility (solvents) [2] | order of the photoresistance [3] | τfl ([1]; H2O) | ε · 10^−5 ([1]; solvent H2O) | λmax (abs.) ([1]; solvent H2O) | λmax (fl.) ([1]; solvent H2O) | solubility in water or aqueous buffers [5] | further results
25 nm | – | – | CC[N+]1=c2cc3c(cc2C(C)CC1(C)C)=C(c1ccccc1C(=O)N(C)CCCC(=O)O)c1cc2c4c(c1C3(C)C)CCCN4CCC2.[O-][Cl+3]([O-])([O-])[O-] (mixture of isomers) [Atto 647N] | 65% | 3.4 ns | DMF, DMSO | Atto 633>Atto 647N>Alexa® 647>Alexa® 633>Cy® 5 | – | – | – | – | – | ε · 10^−5 ([1]; solvent PBS): 1.5 M^−1 cm^−1; λmax (abs.) ([1]; solvent PBS): 644 nm; λmax (fl.) ([1]; solvent PBS): 669 nm
– | polar; also recorded: hydrophilic | 78% | [2H]C1=C(C([2H])([2H])S(=O)(=O)O)c2cc3c(c4c2N(CCC4)C1(C([2H])([2H])[2H])C([2H])([2H])[2H])Oc1c2c4c(cc1=C3c1c(F)c(F)c(F)c(F)c1C(=O)N(C)CCC(=O)O)C(C([2H])([2H])S(=O)(=O)[O-])=C([2H])C(C([2H])([2H])[2H])(C([2H])([2H])[2H])[N+]=4CCC2 [Compound 6D] | – | – | – | – | – | – | – | – | soluble in water or aqueous buffers | τfl (excited state lifetime) [9]: 3.67^21 ns; Stokes shift ([7]; dyes of the invention): 23 nm; ε · 10^−5 ([7]; solvent H2O): 0.92 M^−1 cm^−1; λmax (abs.) ([7]; solvent H2O): 637 nm; λmax (fl.) ([7]; solvent H2O): 660 nm; stability in methanol or methanol-containing solutions [10]: rapid esterification of the β-alanine fragment with methanol; solubility [11]: > 100 mM

Source: patent publication US8580579B2, “Hydrophilic and lipophilic rhodamines for labelling and imaging” (Max-Planck-Gesellschaft zur Foerderung der Wissenschaften …, priority 2009, dated 2013)
